We go through 23 compounds from patent US9732046B2, “Substituted 1,2,4-triazines as tubulin inhibitors” (YM Biosciences Australia Pty Ltd., priority 2003, dated 2017).

Format in all cases: cell-based
Experiment [1] has as its system PC3 (Prostate Cancer). Nature of the experiment: Cellular growth inhibition assay (MTT), PC3. As to conditions: Table 1, 40 hr incubation. The procedure:
(§1) For screening purposes, compounds were diluted in 96 well plates at a concentration of 20 μM. Plates were warmed at 37° C. for 30 minutes before assay.
(§2) K562 (Chronic Myeloid Leukemia), PC3 (Prostate Cancer), and DU145 (Prostate Cancer) were obtained from the American Type Culture Collection (ATCC). K562 was grown in RPMI, with 10% FBS with Glutamx added. DU145 cells were cultured in DMED, with 10% FBS and Glutamx and MEM non-essential amino acids added. PC3 cells were grown in F12K medium, with 10% FBS and Glutamx and MEM non-essential amino acids added. All cells were grown at 37° C. in 5% CO2.
(§3) Cell suspensions were prepared by harvesting cells from culture. (Cells used in this test should be in later log phase growth and high viability.) Cells were diluted in correct growth medium to 1.1× final concentration (from 50000 cell/mL to 200,000 cell/mL, depending on cell line).
(§4) Compounds to be tested were added (10 μL, 10× final concentration) to a flat bottom 96-well plate. The cellular suspension (90 μL per well) was added, and the plate incubated for 40 hr at 37° C., 5% CO2. MTT (20 μL per well, 5 mg/mL in PBS) was added and the plates were returned to the incubator for a further 6 hours. Lysis buffer (100 μL per well, 10% SDS, 0.01N HCl) was added and the plate stored in the incubator overnight. The plate was then read at 590 nm.

The test system of experiment [2] is K562 (Chronic Myeloid Leukemia). The experiment is described as follows: Cellular growth inhibition assay (MTT), K562. As to conditions: Homo sapiens, Table 1, 40 hr incubation. The protocol:
as §1, §2, §3, §4

Experiment [3] concerns the target T1, TelJak2 (BaF3 TELJAK cells, TEL/Jak2 fusion) (Homo sapiens, UniProt O60674).
T1 construct: The regions encompassing the kinase domain of JAK2 (nucleotides 2994-3914); expressed in transfected cells; host or cells: BaF3 cells bearing the pTET-off plasmid, transfected with pTELJAK2 (pTRE2 vector); the other entry of the earlier key: ETV6 (P41212, Transcription factor ETV6)
The experiment is described as follows: Cellular growth inhibition assay (MTT), BaF3 TEL:JAK2 cell line. The note with it: Table 1, 40 hr incubation. The procedure:
as §1
(§5) The coding region encompassing nucleotides 1-487 of TEL was amplified by PCR using the oligonucleotides 5TEL (5′-GGAGGATCCTGATCTCTCTCGCTGTGAGAC-3′) (SEQ ID NO: 1) and 3TEL (5′-AGGC GTCGACTTCTTCTTGATGGTTCTG-3′) (SEQ ID NO: 2) and U937 mRNA as template. A BamH I site was incorporated into the 5TEL primer, and a Sal I site was incorporated into the 3TEL primer. The regions encompassing the kinase domain of JAK2 (nucleotides 2994-3914; JAK2F 5′-ACGC GTCGACGGTGCCTTTGAAGACCGGGAT-3 (SEQ ID NO: 3); JAK2R 5′-ATAGTTTAGCGGCCGCTCAGAATGAAGGTCATTT-3′) (SEQ ID NO: 4) and JAK3 (nucleotides 2520-3469; JAK3F 5′-GAAGTCGACTATGCCTGCCAAGACCCCACGATCTT-3′ (SEQ ID NO: 5); JAK3R 5′-GGATCTAGACTATGAAAAGGACAGGGAGTGGTGTTT-3′ (SEQ ID NO: 6)) were generated by PCR using Taq DNA polymerase (Gibco/BRL) and U937 mRNA as template. A Sal I site was incorporated into the forward primer of JAK2 and JAK3, a Not I site was incorporated into the JAK2 reverse primer and a Xba I site was added to the reverse primer of JAK3.
(§6) A TEL/Jak2 fusion was generated by digestion of the TELPCR product with BamH I/Sa1 I, digestion of the JAK2 PCR product with Sa1 I/Not I followed by ligation and subcloning into the mammalian expression Vector pTRE 2 (Clontech) digested with BamH I-Not I (pTELJAK2). For JAK3 Sa1 I/Not I cleaved kinase domain PCR product was ligated with BamH I/Sa1 I cleaved TELproduct followed by ligation into BamH I/Not I cleaved pTRE2 (pTELJAK3).
(§7) The growth factor dependent myelomonocytic cell line BaF3 bearing the pTET-off plasmid (Clontech) was transfected with either pTELJAK2 or pTELJAK3 and the cells selected for factor independent growth. BaF 3 wild type cells were cultured in DMEM 10% FCS, 10% WEHI 3B conditioned medium. BaF3 TELJAK cells were cultured in DMEM 10% Tet-System Approved FBS (without WEHI 3B conditioned medium).
as §3, §4

Experiment [4] addresses T2, TelJak3 (BaF3 TELJAK cells, TEL/JAK3 fusion) (Homo sapiens, UniProt P52333).
T2 construct: For JAK3 Sa1 I/Not I cleaved kinase domain PCR product was ligated with BamH I/Sa1 I cleaved TELproduct; expressed in transfected cells; host or cells: BaF3 cells bearing the pTET-off plasmid, transfected with pTELJAK3 (pTRE2 vector); the other entry of the earlier key: ETV6 (P41212, Transcription factor ETV6)
The experiment is described as follows: Cellular growth inhibition assay (MTT), BaF3 TEL:JAK3 cell line. As to conditions: Table 1, 40 hr incubation. The protocol:
as §1, §5, §6, §7, §3, §4

Experiment [5] deals with DU145 (Prostate Cancer). The experiment is described as follows: Cellular growth inhibition assay (MTT), DU145. The note with it: Homo sapiens, DU-145, Table 1, 40 hr incubation. The procedure: as §1, §2, §3, §4

T1 sequence (O60674 with tags, fused parts or gaps): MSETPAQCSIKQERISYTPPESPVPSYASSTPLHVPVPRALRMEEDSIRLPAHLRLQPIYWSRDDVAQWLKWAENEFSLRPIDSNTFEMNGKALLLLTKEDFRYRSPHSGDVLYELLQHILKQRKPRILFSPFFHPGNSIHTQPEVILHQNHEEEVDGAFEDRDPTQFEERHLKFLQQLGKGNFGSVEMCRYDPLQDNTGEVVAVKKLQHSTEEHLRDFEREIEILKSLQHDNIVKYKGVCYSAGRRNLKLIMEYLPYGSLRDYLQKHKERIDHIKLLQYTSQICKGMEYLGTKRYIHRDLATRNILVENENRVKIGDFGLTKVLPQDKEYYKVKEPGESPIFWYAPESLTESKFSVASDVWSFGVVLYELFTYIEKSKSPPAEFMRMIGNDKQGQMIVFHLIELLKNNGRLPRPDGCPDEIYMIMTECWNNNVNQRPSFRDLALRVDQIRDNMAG
T2 sequence (P52333 with tags, fused parts or gaps): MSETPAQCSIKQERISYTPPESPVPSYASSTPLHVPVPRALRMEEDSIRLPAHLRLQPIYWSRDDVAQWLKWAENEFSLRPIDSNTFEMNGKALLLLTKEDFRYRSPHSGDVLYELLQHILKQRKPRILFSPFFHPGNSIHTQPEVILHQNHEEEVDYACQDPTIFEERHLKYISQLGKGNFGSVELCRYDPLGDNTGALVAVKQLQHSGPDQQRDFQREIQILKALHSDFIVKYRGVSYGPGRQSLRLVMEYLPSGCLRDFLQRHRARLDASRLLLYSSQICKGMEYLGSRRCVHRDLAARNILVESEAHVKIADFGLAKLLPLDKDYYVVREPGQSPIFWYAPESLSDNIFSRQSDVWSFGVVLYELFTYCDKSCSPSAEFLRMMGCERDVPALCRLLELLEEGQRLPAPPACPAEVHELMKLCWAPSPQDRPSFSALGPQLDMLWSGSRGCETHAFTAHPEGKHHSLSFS

Broadly, the inhibition is the drop in the measured response relative to a control, in per cent. A high value points to a response far below the control. Turning to `CCCC(Nc1cncc(-c2ccc(C(=O)N3CCN(C)CC3)cc2)n1)c1ccccc1` (stereo not drawn), the inhibition at 20 µM is below 50% in experiment [1], below 50% in experiment [2], above 50% in experiment [3] and above 50% in experiment [4].

For `CCCC(Nc1cncc(-c2ccc(CO)c(OC)c2)n1)c1cccnc1` (stereo not drawn), the inhibition at 20 µM in experiment [5] is below 50%; in experiment [1], below 50%; in experiment [2] it was above 50%; in experiment [3] it was above 50%; in experiment [4] it was above 50%.

In the case of `CCCC(Nc1cncc(-c2ccc(NC(=O)C3CCNCC3)c(OC)c2)n1)c1cccnc1` (stereo not drawn), the inhibition at 20 µM was below 50% in experiment [5]; below 50% in experiment [1]; above 50% in experiment [2]; above 50% in experiment [3]; below 50% in experiment [4].

Turning to `COc1cc(-c2ncc(C)c(NC(CCO)c3ccccc3)n2)ccc1O` (stereo not drawn), the inhibition at 20 µM is above 50% in experiment [5]; below 50% in experiment [1]; above 50% in experiment [2]; above 50% in experiment [3]; above 50% in experiment [4].

For the compound `CCCC(Nc1cncc(-c2ccc(C(=O)NCCCN3CCOCC3)cc2)n1)c1ccccc1` (stereo not drawn), the inhibition at 20 µM in experiment [5] was below 50%; in experiment [1], below 50%; in experiment [2], below 50%; in experiment [3] it was above 50%; in experiment [4], above 50%.

Turning to `CCC[C@H](Nc1cncc(-c2ccc(NC(=O)CN(C)C)c(OC)c2)n1)c1cccnc1`, the inhibition at 20 µM in experiment [5], in experiment [1], in experiment [2], in experiment [3] and in experiment [4] was above 50% throughout.

Regarding `CCCC(Nc1cncc(-c2ccc(CN3CCC[C@H]3CO)cc2)n1)c1ccccc1` (stereo partly drawn), the inhibition at 20 µM was below 50% in experiment [5]; below 50% in experiment [1]; above 50% in experiment [2]; above 50% in experiment [3]; above 50% in experiment [4].

Turning to `CCCC(Nc1cncc(-c2ccc(C(=O)N3CCOCC3)cc2)n1)c1ccccc1` (stereo not drawn), the inhibition at 20 µM was below 50% in experiment [1], below 50% in experiment [2], above 50% in experiment [3] and above 50% in experiment [4].

Consider `CCCC(Nc1cncc(-c2ccc(NC(=O)NCC)cc2)n1)c1cccnc1` (stereo not drawn), for which the inhibition at 20 µM in experiment [5] was below 50%; in experiment [1], below 50%; in experiment [2] it was above 50%; in experiment [3], above 50%; in experiment [4], above 50%.

Turning to `CCCC(Nc1cncc(-c2ccc(CNC(=O)C3CCC(=O)N3)cc2)n1)c1ccccc1` (stereo not drawn), the inhibition at 20 µM in experiment [5] was below 50%; in experiment [1], below 50%; in experiment [2], above 50%; in experiment [3] it was above 50%; in experiment [4], above 50%.

For the compound `CCCC(Nc1cncc(-c2ccc(NC(=O)c3cccnc3)c(OC)c2)n1)c1cccnc1` (stereo not drawn), the inhibition at 20 µM in experiment [5] is below 50%; in experiment [1] it was below 50%; in experiment [2] it was above 50%; in experiment [3], above 50%; in experiment [4] it was above 50%.

On to `CCCC(Nc1cncc(-c2ccc(OCCCN3CCN(C)CC3)c(OC)c2)n1)c1cccnc1` (stereo not drawn), for which the inhibition at 20 µM in experiment [5] was below 50%; in experiment [1], below 50%; in experiment [2] it was below 50%; in experiment [3], above 50%; in experiment [4] it was above 50%.

`CCCC(Nc1cncc(-c2ccc(C(=O)NCCCN(CC)CC)cc2)n1)c1ccccc1` (stereo not drawn): the inhibition at 20 µM in experiment [5] is above 50%; in experiment [1] it was below 50%; in experiment [2] it was above 50%; in experiment [3], above 50%; in experiment [4] it was above 50%.

Take `CCCC(Nc1cncc(-c2ccc(CN3CCCCC3)cc2)n1)c1ccccc1` (stereo not drawn): the inhibition at 20 µM was below 50% in experiment [5]; below 50% in experiment [1]; below 50% in experiment [2]; above 50% in experiment [3]; above 50% in experiment [4].

On to `CCCC(Nc1cncc(-c2ccc(OCCCN3CCCC3)c(OC)c2)n1)c1cccnc1` (stereo not drawn), for which the inhibition at 20 µM is below 50% in experiment [5]; below 50% in experiment [1]; above 50% in experiment [2]; above 50% in experiment [3]; above 50% in experiment [4].

`CCCC(Nc1nnc(C)c(-c2cc(OC)c(OC)c(OC)c2)n1)c1ccccc1` (stereo not drawn): the inhibition at 20 µM in experiment [5] was below 50%; in experiment [1], below 50%; in experiment [2] it was above 50%; in experiment [3] it was above 50%; in experiment [4], above 50%.

`CCCC(Nc1cncc(-c2ccc(CN3CCN(C)CC3)cc2)n1)c1ccccc1` (stereo not drawn): the inhibition at 20 µM in experiment [5] is below 50%; in experiment [1], below 50%; in experiment [2], below 50%; in experiment [3] it was above 50%; in experiment [4], above 50%.

With `CCCC(Nc1cncc(-c2cc(OC)c(OC)c(OC)c2)c1)c1ccccc1` (stereo not drawn), the inhibition at 20 µM in experiment [5] is below 50%; in experiment [1] it was above 50%; in experiment [2], above 50%; in experiment [3], above 50%; in experiment [4], above 50%.

In the case of `CCNC(=O)Nc1ccc(-c2cncc(NC(C)c3cccnc3)n2)cc1OC` (stereo not drawn), the inhibition at 20 µM in experiment [1] is below 50%; in experiment [3], above 50%; in experiment [4], above 50%.

On to `CCCC(Nc1cncc(-c2ccc(OCCN(CC)CC)c(OC)c2)n1)c1cncc(C)c1` (stereo not drawn), for which the inhibition at 20 µM in experiment [5] is below 50%; in experiment [1], below 50%; in experiment [2] it was above 50%; in experiment [3], above 50%; in experiment [4] it was above 50%.

Turning to `CCCC(Nc1cncc(-c2ccc(CN3CCOCC3)cc2)n1)c1ccccc1` (stereo not drawn), the inhibition at 20 µM in experiment [5] was below 50%; in experiment [1] it was below 50%; in experiment [2], below 50%; in experiment [3], above 50%; in experiment [4], below 50%.

On to `CCCC(Nc1cncc(-c2ccc(C(=O)NCCCCCN)c(C)c2)n1)c1cccnc1` (stereo not drawn), for which the inhibition at 20 µM in experiment [5] was below 50%; in experiment [1] it was below 50%; in experiment [2], above 50%; in experiment [3] it was above 50%; in experiment [4] it was above 50%.

As for `CCCC(Nc1cncc(-c2ccc(OCCCN3CCOCC3)c(OC)c2)n1)c1cccnc1` (stereo not drawn), the inhibition at 20 µM in experiment [5] is below 50%; in experiment [1], below 50%; in experiment [2], below 50%; in experiment [3] it was above 50%; in experiment [4] it was above 50%.
